Data reported in ChEMBL document CHEMBL5634079, “Development of novel celastrol-ligustrazine hybrids as potent peroxiredoxin 1 inhibitors against lung cancer” (Eur J Med Chem, 2023).
The source made the active and inactive calls. The rule behind the calls is not given here.

What was measured:
A549 [1] = experiment: Induction of apoptosis in human A549 cells assessed as viable cells at 2 uM incubated for 48 hrs by Annexin V-FITC and PI staining based flow cytometric analysis (reference value: 93.8%); format: functional; details: read-out: Activity
A549 [2] = experiment: Inhibition of ERK phosphorylation in human A549 cells at 2 to 4 uM by Western blot analysis; format: cell-based; details: dose 2-4 µM
A549 [3] = experiment: Inhibition of cell invasion in human A549 cells at 2 to 4 uM by crystal violet staining based microscopic analysis; format: functional; details: dose 2-4 µM, time 12-48 hrs, TDE = time-dependent effect
A549 [4] = experiment: Induction of apoptosis in human A549 cells assessed as increase in cleaved PARP expression at 2 to 4 uM by Western blot analysis; format: functional, cell-based; details: dose 2-4 µM
[5] = Toxicity in C57BL/6J mouse implanted with mouse Lewis lung carcinoma cell line assessed as liver damage at 0.5 to 1 mg/kg, ip administered every day for 19 days; format: organism-based; details: in vivo, 456 h, dose 0.5-1 mg/kg, time 19 day
A549 [6] = experiment: Downregulation of PRDX4 level in human A549 cells at 2 to 4 uM by Western blot analysis; format: functional, cell-based; details: dose 2-4 µM
SK-HEP1 = experiment: Antiproliferative activity against human SK-HEP1 cells assessed as inhibition of cell growth incubated for 48 hrs by MTT assay; format: functional, cell-based; details: SK-HEP1, 48 h
[7] = Antitumor activity against mouse Lewis lung carcinoma cell line implanted in C57BL/6J mouse assessed as tumor growth inhibition at 1 mg/kg, ip administered every day for 19 days; format: functional; details: 456 h, time 19 day, read-out: TGI
A549 [8] = experiment: Induction of apoptosis in human A549 cells assessed as viable cells at 4 uM incubated for 48 hrs by Annexin V-FITC and PI staining based flow cytometric analysis (reference value: 93.8%); format: functional; details: read-out: Activity
[9] = Antitumor activity against mouse Lewis lung carcinoma cell line implanted in C57BL/6J mouse assessed as tumor growth inhibition at 0.5 mg/kg, ip administered every day for 19 days; format: functional; details: 456 h, time 19 day, read-out: TGI
A549 [10] = experiment: Induction of apoptosis in human A549 cells assessed as late apoptotic cells at 4 uM incubated for 48 hrs by Annexin V-FITC and PI staining based flow cytometric analysis (reference value: 0.73%); format: functional
A549 [11] = experiment: Inhibition of AKT phosphorylation in human A549 cells at 2 to 4 uM by Western blot analysis; format: cell-based; details: dose 2-4 µM
Lewis lung carcinoma [12] = experiment: Antitumor activity against mouse Lewis lung carcinoma cell line implanted in C57BL/6J mouse assessed as tumor cell contraction at 0.5 to 1 mg/kg, ip administered every day for 19 days by H and E staining based analysis; format: functional, organism-based; details: dose 0.5-1 mg/kg, time 19.0 day
A549 [13] = experiment: Inhibition of cell migration in human A549 cells at 2 to 4 uM incubated for 24 hrs by inverted microscopic analysis; format: functional, cell-based; details: dose 2-4 µM
Lewis lung carcinoma [14] = experiment: Antitumor activity against mouse Lewis lung carcinoma cell line implanted in C57BL/6J mouse assessed as nuclear chromatin marginalization at 0.5 to 1 mg/kg, ip administered every day for 19 days by H and E staining based analysis; format: functional, organism-based; details: dose 0.5-1 mg/kg, time 19.0 day
[15] = Toxicity in C57BL/6J mouse implanted with mouse Lewis lung carcinoma cell line assessed as decrease in body weight at 0.5 to 1 mg/kg, ip administered every day for 19 days; format: organism-based; details: in vivo, 456 h, dose 0.5-1 mg/kg, time 19 day
[16] = Antiproliferative activity against human LTEP-a2 cells assessed as inhibition of cell growth incubated for 48 hrs by MTT assay; format: functional, cell-based; details: LTEP-A2, 48 h
A549 [17] = experiment: Induction of apoptosis in human A549 cells assessed as increase in cleaved caspase-8 expression at 2 to 4 uM by Western blot analysis; format: functional, cell-based; details: dose 2-4 µM
NCI-H1975 = experiment: Antiproliferative activity against human NCI-H1975 cells assessed as inhibition of cell growth incubated for 48 hrs by MTT assay; format: functional, cell-based; details: NCI-H1975, 48 h
A549 [18] = experiment: Induction of cell cycle arrest in human A549 cells assessed as decrease in CDK2 level at 2 to 4 uM by Western blot analysis; format: functional, cell-based; details: dose 2-4 µM
A549 [19] = experiment: Downregulation of PRDX1 level in human A549 cells at 2 to 4 uM by Western blot analysis; format: functional, cell-based; details: dose 2-4 µM
A549 [20] = experiment: Inhibition of cell invasion in human A549 cells incubated for 12 to 48 hrs by crystal violet staining based microscopic analysis; format: functional; details: dose 2-4 µM, time 12-48 hrs
Peroxiredoxin-1 = target: T1, Peroxiredoxin-1 (Homo sapiens, UniProt Q06830); experiment: Inhibition of PRDX1 (unknown origin) in presence of cofactor A/cofactor B/NADPH incubated for 25 mins; details: read-out: IC50
T1 sequence (Q06830 whole entry): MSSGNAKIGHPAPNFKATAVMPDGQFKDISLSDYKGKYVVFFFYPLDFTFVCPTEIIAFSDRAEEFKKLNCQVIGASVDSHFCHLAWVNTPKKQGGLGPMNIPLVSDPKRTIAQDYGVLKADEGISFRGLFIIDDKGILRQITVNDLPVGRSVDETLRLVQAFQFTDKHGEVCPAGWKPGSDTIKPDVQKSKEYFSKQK

[21] = Toxicity in C57BL/6J mouse implanted with mouse Lewis lung carcinoma cell line assessed as heart damage at 0.5 to 1 mg/kg, ip administered every day for 19 days; format: organism-based; details: in vivo, 456 h, dose 0.5-1 mg/kg, time 19 day
A549 [22] = experiment: Downregulation of PRDX6 level in human A549 cells at 2 to 4 uM by Western blot analysis; format: functional, cell-based; details: dose 2-4 µM
A549 [23] = experiment: Induction of apoptosis in human A549 cells assessed as necrotic cells at 2 uM incubated for 48 hrs by Annexin V-FITC and PI staining based flow cytometric analysis (reference value: 4.68%); format: functional
Lewis lung carcinoma [24] = experiment: Antitumor activity against mouse Lewis lung carcinoma cell line implanted in C57BL/6J mouse assessed as tumor cell agglutination at 0.5 to 1 mg/kg, ip administered every day for 19 days by H and E staining based analysis; format: functional, organism-based; details: dose 0.5-1 mg/kg, time 19.0 day
A549 [25] = experiment: Downregulation of PRDX1 gene expression in human A549 cells at 2 to 4 uM by Q-PCR analysis; format: functional, cell-based; details: dose 2-4 µM
A549 [26] = experiment: Inhibition of PI3K phosphorylation in human A549 cells at 2 to 4 uM by Western blot analysis; format: cell-based; details: dose 2-4 µM
A549 [27] = experiment: Induction of apoptosis in human A549 cells assessed as decrease in PARP level at 2 to 4 uM by Western blot analysis; format: functional, cell-based; details: dose 2-4 µM
[28] = Toxicity in C57BL/6J mouse implanted with mouse Lewis lung carcinoma cell line assessed as spleen damage at 0.5 to 1 mg/kg, ip administered every day for 19 days; format: organism-based; details: in vivo, 456 h, dose 0.5-1 mg/kg, time 19 day
A549 [29] = experiment: Induction of apoptosis in human A549 cells assessed as early apoptotic cells at 2 uM incubated for 48 hrs by Annexin V-FITC and PI staining based flow cytometric analysis (reference value: 0.76%); format: functional
Lewis lung carcinoma [30] = experiment: Antitumor activity against mouse Lewis lung carcinoma cell line implanted in C57BL/6J mouse assessed as reduction in tumor cell proliferation by measuring reduction in Ki67 expression at 0.5 to 1 mg/kg, ip administered every day for 19 days; format: functional, organism-based; details: dose 0.5-1 mg/kg, time 19.0 day
A549 [31] = experiment: Induction of apoptosis in human A549 cells assessed as necrotic cells at 4 uM incubated for 48 hrs by Annexin V-FITC and PI staining based flow cytometric analysis (reference value: 4.68%); format: functional
A549 [32] = experiment: Downregulation of PRDX3 level in human A549 cells at 2 to 4 uM by Western blot analysis; format: functional, cell-based; details: dose 2-4 µM

**Q.** Which viability at 2 µM (A549 [1]) does the source give for CC1=C(OC(=O)/C=C/c2ccccc2)C(=O)C=C2C1=CC=C1[C@@]2(C)CC[C@@]2(C)[C@@H]3C[C@](C)(C(=O)NCc4nc(C)c(C)nc4C)CC[C@]3(C)CC[C@]12C here?
**A.** 88.4%

**Q.** And the inhibition (A549 [2])?
**A.** Active

**Q.** And the inhibition (A549 [3])?
**A.** Tde

**Q.** What about the Activity (A549 [4]) of the same molecule?
**A.** Active

**Q.** And the Activity [5]?
**A.** Non-Toxic

**Q.** What about the Activity (A549 [6]) of the same molecule?
**A.** Active

**Q.** And the IC50 (SK-HEP1)?
**A.** 2420 nM

**Q.** And the inhibition in vivo at 1 mg/kg [7]?
**A.** 77.4%

**Q.** And the viability at 4 µM (A549 [8])?
**A.** 45.1%

**Q.** And the inhibition in vivo at 0.5 mg/kg [9]?
**A.** 69.9%

**Q.** And the Activity (A549 [10])?
**A.** 33.4%

**Q.** What about the inhibition (A549 [11]) of the same molecule?
**A.** Active

**Q.** What about the Activity (Lewis lung carcinoma [12]) of the same molecule?
**A.** Active

**Q.** And the inhibition (A549 [13])?
**A.** Active

**Q.** What about the Activity (Lewis lung carcinoma [14]) of the same molecule?
**A.** Active

**Q.** And the Activity [15]?
**A.** Non-Toxic

**Q.** And the IC50 [16]?
**A.** 2930 nM

**Q.** And the Activity (A549 [17])?
**A.** Active

**Q.** What about the IC50 (NCI-H1975) of the same molecule?
**A.** 1990 nM

**Q.** And the Activity (A549 [18])?
**A.** Active

**Q.** And the Activity (A549 [19])?
**A.** Active

**Q.** And the inhibition (A549 [20])?
**A.** Dose-Dependent Effect

**Q.** And the IC50 (Peroxiredoxin-1)?
**A.** 164 nM

**Q.** What about the Activity [21] of the same molecule?
**A.** Non-Toxic

**Q.** What about the Activity (A549 [22]) of the same molecule?
**A.** Active

**Q.** What about the Activity (A549 [23]) of the same molecule?
**A.** 3.57%

**Q.** What about the Activity (Lewis lung carcinoma [24]) of the same molecule?
**A.** Active

**Q.** And the Activity (A549 [25])?
**A.** Active

**Q.** What about the inhibition (A549 [26]) of the same molecule?
**A.** Active

**Q.** And the Activity (A549 [27])?
**A.** Active

**Q.** What about the Activity [28] of the same molecule?
**A.** Non-Toxic

**Q.** And the Activity (A549 [29])?
**A.** 3.13%

**Q.** And the Activity (Lewis lung carcinoma [30])?
**A.** Active

**Q.** What about the Activity (A549 [31]) of the same molecule?
**A.** 3.04%

**Q.** What about the Activity (A549 [32]) of the same molecule?
**A.** Active
